According to patent publication US5338868A, “Process for preparing alpha-amino-phenylacetic acid-trifluoromethane sulfonic acid mixed anhydrides” (Chinoin Gyogyszer- es Vegyeszeti Termekek Gyara Rt., priority 1989, dated 1994):

Test: Quality of the Dane salt during storage for 30 days
Assay type: physicochemical

Row | Compound | quality during storage (room temperature, air) | quality after storage (stored at room temperature)
1 | CCOC(=O)C=C(C)N[C@@H](C(=O)O)c1ccc(O)cc1 [Example 9] | does not change | –
2 | CCOC(=O)C=C(C)N[C@@H](C(=O)[O-])c1ccccc1.[Na+] [Example 15, sodium-D-N-(2-ethoxycarbonyl-1-methyl-vinyl)-α-amino-phenyl-acetate] | – | remains unchanged
